In PubChem BioAssay AID1918930 (Molecular Pharmacology Branch, DTP, NCI, 2023):

System: 233499-124-R-J3-PDC complex spheroid viability, % test/control
Assay: Anticancer human tumor 233499-124-R-J3-PDC patient-derived colon adenocarcinoma cell line growth inhibition
Conditions: for IC50: curve of first compound; for viability, T/C: stronger effect = lower value
How it was run: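 Drug combinations with the LSD1 inhibitor iadademstat tested on tumor cells co-cultured as spheroids with endothelial cells and mesenchymal stem cells. Concentrations descended in half-log increments from clinical Cmax or 10 microM.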

[1] = second compound 0.1 µM, first compound 0.00316 µM
[2] = second compound 0.1 µM, first compound 0.01 µM
[3] = second compound 0.1 µM, first compound 0.0316 µM
[4] = second compound 0.1 µM, first compound 0.1 µM
[5] = second compound 0.316 µM, first compound 0.00316 µM
[6] = second compound 0.316 µM, first compound 0.01 µM
[7] = second compound 0.316 µM, first compound 0.0316 µM
[8] = second compound 0.316 µM, first compound 0.1 µM
[9] = second compound 1 µM, first compound 0.00316 µM
[10] = second compound 1 µM, first compound 0.01 µM
[11] = second compound 1 µM, first compound 0.0316 µM
[12] = second compound 1 µM, first compound 0.1 µM
[13] = second compound 3.16 µM, first compound 0.00316 µM
[14] = second compound 3.16 µM, first compound 0.01 µM
[15] = second compound 3.16 µM, first compound 0.0316 µM
[16] = second compound 3.16 µM, first compound 0.1 µM
[17] = second compound 10 µM, first compound 0.00316 µM
[18] = second compound 10 µM, first compound 0.01 µM
[19] = second compound 10 µM, first compound 0.0316 µM
[20] = second compound 10 µM, first compound 0.1 µM
[21] = second compound 0.1 µM, first compound 0.000949 µM
[22] = second compound 0.1 µM, first compound 0.003 µM
[23] = second compound 0.1 µM, first compound 0.00949 µM
[24] = second compound 0.1 µM, first compound 0.03 µM
[25] = second compound 0.1 µM, first compound 0.0949 µM
[26] = second compound 0.1 µM, first compound 0.3 µM
[27] = second compound 0.316 µM, first compound 0.000949 µM
[28] = second compound 0.316 µM, first compound 0.003 µM
[29] = second compound 0.316 µM, first compound 0.00949 µM
[30] = second compound 0.316 µM, first compound 0.03 µM
[31] = second compound 0.316 µM, first compound 0.0949 µM
[32] = second compound 0.316 µM, first compound 0.3 µM
[33] = second compound 1 µM, first compound 0.000949 µM
[34] = second compound 1 µM, first compound 0.003 µM
[35] = second compound 1 µM, first compound 0.00949 µM
[36] = second compound 1 µM, first compound 0.03 µM
[37] = second compound 1 µM, first compound 0.0949 µM
[38] = second compound 1 µM, first compound 0.3 µM
[39] = second compound 3.16 µM, first compound 0.000949 µM
[40] = second compound 3.16 µM, first compound 0.003 µM
[41] = second compound 3.16 µM, first compound 0.00949 µM
[42] = second compound 3.16 µM, first compound 0.03 µM
[43] = second compound 3.16 µM, first compound 0.0949 µM
[44] = second compound 3.16 µM, first compound 0.3 µM
[45] = second compound 10 µM, first compound 0.000949 µM
[46] = second compound 10 µM, first compound 0.003 µM
[47] = second compound 10 µM, first compound 0.00949 µM
[48] = second compound 10 µM, first compound 0.03 µM
[49] = second compound 10 µM, first compound 0.0949 µM
[50] = second compound 10 µM, first compound 0.3 µM
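Further: spheroids exposed to agents for one week before readout.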

Compound: CC[C@@]1(O)C(=O)OCc2c1cc1n(c2=O)Cc2cc3c(CN(C)C)c(O)ccc3nc2-1 + NC1CCC(NC2CC2c2ccccc2)CC1
- IC50 (second compound 0.1 µM): > 0.1 µM
- IC50 (second compound 0.316 µM): 0.0316 µM
- IC50 (second compound 1 µM): > 0.1 µM
- IC50 (second compound 3.16 µM): > 0.1 µM
- IC50 (second compound 10 µM): > 0.1 µM
- viability, T/C (second compound 0.1 µM, first compound 0.000316 µM): 104%
- viability, T/C (second compound 0.1 µM, first compound 0.001 µM): 76.6%
- viability, T/C [1]: 79.7%
- viability, T/C [2]: 64%
- viability, T/C [3]: 71.9%
- viability, T/C [4]: 87.9%
- viability, T/C (second compound 0.316 µM, first compound 0.000316 µM): 93.7%
- viability, T/C (second compound 0.316 µM, first compound 0.001 µM): 80.1%
- viability, T/C [5]: 88.9%
- viability, T/C [6]: 47.5%
- viability, T/C [7]: 54.5%
- viability, T/C [8]: 66.1%
- viability, T/C (second compound 1 µM, first compound 0.000316 µM): 65.9%
- viability, T/C (second compound 1 µM, first compound 0.001 µM): 63.9%
- viability, T/C [9]: 50.3%
- viability, T/C [10]: 51.5%
- viability, T/C [11]: 71.2%
- viability, T/C [12]: 63.8%
- viability, T/C (second compound 3.16 µM, first compound 0.000316 µM): 92%
- viability, T/C (second compound 3.16 µM, first compound 0.001 µM): 74.9%
- viability, T/C [13]: 56.8%
- viability, T/C [14]: 53.6%
- viability, T/C [15]: 58.8%
- viability, T/C [16]: 69.9%
- viability, T/C (second compound 10 µM, first compound 0.000316 µM): 76.9%
- viability, T/C (second compound 10 µM, first compound 0.001 µM): 82.9%
- viability, T/C [17]: 68.4%
- viability, T/C [18]: 48%
- viability, T/C [19]: 60.8%
- viability, T/C [20]: 80.7%

Compound: CCc1c2c(nc3ccc(O)cc13)-c1cc3c(c(=O)n1C2)COC(=O)[C@]3(O)CC + NC1CCC(NC2CC2c2ccccc2)CC1
- IC50 (second compound 0.1 µM): 0.025 µM
- IC50 (second compound 0.316 µM): 0.0275 µM
- IC50 (second compound 1 µM): 0.0294 µM
- IC50 (second compound 3.16 µM): 0.0371 µM
- IC50 (second compound 10 µM): 0.0405 µM
- viability, T/C [21]: 80.5%
- viability, T/C [22]: 99.5%
- viability, T/C [23]: 89.6%
- viability, T/C [24]: 42.6%
- viability, T/C [25]: 19.8%
- viability, T/C [26]: 20.4%
- viability, T/C [27]: 99.6%
- viability, T/C [28]: 92.2%
- viability, T/C [29]: 107%
- viability, T/C [30]: 46%
- viability, T/C [31]: 28.6%
- viability, T/C [32]: 12.8%
- viability, T/C [33]: 72.6%
- viability, T/C [34]: 89.5%
- viability, T/C [35]: 95.6%
- viability, T/C [36]: 49.3%
- viability, T/C [37]: 16.8%
- viability, T/C [38]: 13.2%
- viability, T/C [39]: 90.8%
- viability, T/C [40]: 92.1%
- viability, T/C [41]: 99.7%
- viability, T/C [42]: 56%
- viability, T/C [43]: 28.5%
- viability, T/C [44]: 18.2%
- viability, T/C [45]: 72.3%
- viability, T/C [46]: 78.3%
- viability, T/C [47]: 93.2%
- viability, T/C [48]: 58.8%
- viability, T/C [49]: 27.1%
- viability, T/C [50]: 22.9%

Compound: COc1cc(C2c3cc4c(cc3C(OC3OC5COC(C)OC5C(O)C3O)C3COC(=O)C23)OCO4)cc(OC)c1O (stereo not given) + NC1CCC(NC2CC2c2ccccc2)CC1
- IC50 (second compound 0.1 µM): > 3 µM
- IC50 (second compound 0.316 µM): > 3 µM
- IC50 (second compound 1 µM): > 3 µM
- IC50 (second compound 3.16 µM): > 3 µM
- IC50 (second compound 10 µM): 1.29 µM
- viability, T/C [23]: 96.6%
- viability, T/C [24]: 102%
- viability, T/C [25]: 80.8%
- viability, T/C [26]: 88.8%
- viability, T/C (second compound 0.1 µM, first compound 0.949 µM): 81%
- viability, T/C (second compound 0.1 µM, first compound 3 µM): 75.5%
- viability, T/C [29]: 119%
- viability, T/C [30]: 115%
- viability, T/C [31]: 89%
- viability, T/C [32]: 95%
- viability, T/C (second compound 0.316 µM, first compound 0.949 µM): 89.9%
- viability, T/C (second compound 0.316 µM, first compound 3 µM): 73.4%
- viability, T/C [35]: 97.1%
- viability, T/C [36]: 81.3%
- viability, T/C [37]: 80.1%
- viability, T/C [38]: 77.3%
- viability, T/C (second compound 1 µM, first compound 0.949 µM): 65.7%
- viability, T/C (second compound 1 µM, first compound 3 µM): 92.2%
- viability, T/C [41]: 91.5%
- viability, T/C [42]: 83.7%
- viability, T/C [43]: 81.4%
- viability, T/C [44]: 65.9%
- viability, T/C (second compound 3.16 µM, first compound 0.949 µM): 82%
- viability, T/C (second compound 3.16 µM, first compound 3 µM): 57.6%
- viability, T/C [47]: 97.1%
- viability, T/C [48]: 77.6%
- viability, T/C [49]: 74.7%
- viability, T/C [50]: 60.5%
- viability, T/C (second compound 10 µM, first compound 0.949 µM): 63.7%
- viability, T/C (second compound 10 µM, first compound 3 µM): 36.4%

Compound: Nc1ccn(C2OC(CO)C(O)C2(F)F)c(=O)n1 (stereo not given) + NC1CCC(NC2CC2c2ccccc2)CC1
- IC50 (second compound 0.1 µM): 0.00248 µM
- IC50 (second compound 0.316 µM): 0.00447 µM
- IC50 (second compound 1 µM): 0.00613 µM
- IC50 (second compound 3.16 µM): 0.00107 µM
- IC50 (second compound 10 µM): < 0.000949 µM
- viability, T/C [21]: 100%
- viability, T/C [22]: 35.6%
- viability, T/C [23]: 43.9%
- viability, T/C [24]: 21.9%
- viability, T/C [25]: 30.3%
- viability, T/C [26]: 21.1%
- viability, T/C [27]: 99.4%
- viability, T/C [28]: 58.8%
- viability, T/C [29]: 22.2%
- viability, T/C [30]: 32.3%
- viability, T/C [31]: 37.9%
- viability, T/C [32]: 41.5%
- viability, T/C [33]: 88.7%
- viability, T/C [34]: 62.1%
- viability, T/C [35]: 44.4%
- viability, T/C [36]: 31.1%
- viability, T/C [37]: 26.6%
- viability, T/C [38]: 35.1%
- viability, T/C [39]: 51.4%
- viability, T/C [40]: 40.9%
- viability, T/C [41]: 36.9%
- viability, T/C [42]: 47.2%
- viability, T/C [43]: 18.9%
- viability, T/C [44]: 39.5%
- viability, T/C [45]: 59.2%
- viability, T/C [46]: 29.7%
- viability, T/C [47]: 29.2%
- viability, T/C [48]: 34.9%
- viability, T/C [49]: 27.3%
- viability, T/C [50]: 37%

Compound: Nc1ncn(C2CC(O)C(CO)O2)c(=O)n1 (stereo not given) + NC1CCC(NC2CC2c2ccccc2)CC1
- IC50 (second compound 0.1 µM): > 1 µM
- IC50 (second compound 0.316 µM): > 1 µM
- IC50 (second compound 1 µM): > 1 µM
- IC50 (second compound 3.16 µM): > 1 µM
- IC50 (second compound 10 µM): > 1 µM
- viability, T/C [1]: 77.1%
- viability, T/C [2]: 83.9%
- viability, T/C [3]: 83.8%
- viability, T/C [4]: 69%
- viability, T/C (second compound 0.1 µM, first compound 0.316 µM): 110%
- viability, T/C (second compound 0.1 µM, first compound 1 µM): 111%
- viability, T/C [5]: 92.6%
- viability, T/C [6]: 96.8%
- viability, T/C [7]: 87.2%
- viability, T/C [8]: 86.8%
- viability, T/C (second compound 0.316 µM, first compound 0.316 µM): 98.8%
- viability, T/C (second compound 0.316 µM, first compound 1 µM): 77.6%
- viability, T/C [9]: 89.3%
- viability, T/C [10]: 75.2%
- viability, T/C [11]: 74.8%
- viability, T/C [12]: 72.5%
- viability, T/C (second compound 1 µM, first compound 0.316 µM): 85.1%
- viability, T/C (second compound 1 µM, first compound 1 µM): 94.8%
- viability, T/C [13]: 82.9%
- viability, T/C [14]: 72.2%
- viability, T/C [15]: 73.6%
- viability, T/C [16]: 82.6%
- viability, T/C (second compound 3.16 µM, first compound 0.316 µM): 55.8%
- viability, T/C (second compound 3.16 µM, first compound 1 µM): 101%
- viability, T/C [17]: 74.2%
- viability, T/C [18]: 71.2%
- viability, T/C [19]: 68.7%
- viability, T/C [20]: 65.8%
- viability, T/C (second compound 10 µM, first compound 0.316 µM): 73.1%
- viability, T/C (second compound 10 µM, first compound 1 µM): 82.1%
